According to patent US5292884A, “Cyclic hydroxamic acids” (Biomide Investment Limited Partnership, priority 1992, dated 1994):

target: T1, 12-lipoxygenase (Sus scrofa, UniProt P16469); assay: 12-lipoxygenase inhibition in porcine leukocyte cytosol ([1-14C] arachidonic acid conversion to 12-HETE, TLC); format: biochemical; settings: porcine leukocyte cytosol 0.075 mg/mL, pH 8.0, 5 min preincubation, 5 μM arachidonic acid, 15 min at 37° C.
T1 construct: porcine Leukocyte cytosol in buffer; from tissue; host or cells: porcine leukocyte cytosol
T1 sequence (P16469 1-663): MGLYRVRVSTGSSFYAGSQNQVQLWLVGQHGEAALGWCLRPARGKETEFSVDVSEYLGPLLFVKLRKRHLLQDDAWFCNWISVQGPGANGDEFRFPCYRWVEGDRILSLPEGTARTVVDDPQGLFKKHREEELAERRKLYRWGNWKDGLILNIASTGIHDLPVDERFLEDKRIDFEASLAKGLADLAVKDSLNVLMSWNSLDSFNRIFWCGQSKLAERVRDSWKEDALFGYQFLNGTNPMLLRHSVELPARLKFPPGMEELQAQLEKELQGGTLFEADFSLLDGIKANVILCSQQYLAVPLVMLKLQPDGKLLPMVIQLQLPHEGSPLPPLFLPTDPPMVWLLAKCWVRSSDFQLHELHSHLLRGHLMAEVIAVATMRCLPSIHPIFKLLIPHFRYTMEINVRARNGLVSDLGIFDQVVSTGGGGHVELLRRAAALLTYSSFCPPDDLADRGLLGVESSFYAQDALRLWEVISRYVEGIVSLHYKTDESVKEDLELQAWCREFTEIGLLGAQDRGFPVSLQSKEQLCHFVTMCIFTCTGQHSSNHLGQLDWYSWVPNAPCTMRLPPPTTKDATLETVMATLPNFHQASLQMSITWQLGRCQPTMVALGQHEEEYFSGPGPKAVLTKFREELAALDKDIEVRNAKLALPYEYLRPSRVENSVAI
Protocol: The standard assay procedure is as follows:
Compounds of the present invention were added in 3 μL of DMSO at an appropriate concentration to porcine Leukocyte cytosol in buffer (final protein concentration of 0.075 mg/mL in 0.1M HEPES, 2 mM caCl2, 1 mM MgCl2, pH=8.0) and preincubated for 5 min at 37° C. [1-^14 C] arachidonic acid was added (final concentration of 5 μM) and the reactions were incubated for 15 min at 37° C. and terminated by the addition of HCl. Total reaction volume was 100 μL. Assays also included reduced glutathione in the assay at 25 μM or following the assay at 1 mM and/or cold carrier 12-HETE and arachidonic acid added at the end of the incubation at concentrations of 5 and 100 μM, respectively. Sample was extracted with water-saturated ethyl acetate and the extracts were spotted onto TLC plates. The plates were developed with dichloromethane/ethyl acetate/acetic acid in a ratio of 70:30:1. Under these conditions, the Rf's of 12-HETE and arachidonic acid are 0.30 and 0.45 , respectively. The percentage conversion to 12-HETE was calculated from the percentage of the total ^14 C on the TLC plate that coelutes with a standard of 12-HETE.

IC50 [nM] | SMILES
200 | CCCCCCCCCC[C@@H]1[C@H](c2ccccc2)CCC(=O)N1O (relative stereo) [1(x), cis-6-Decyl-1-hydroxy-5-phenyl-piperidin-2-one]
750 | O=C1C(CCCc2ccccc2)CC(c2ccccc2)CN1O (stereo not drawn) [1(aaa), 1-Hydroxy-5-phenyl-3-(3-phenylpropyl)-piperidin-2-one]
1000 | O=C1C(c2ccccc2)C(CCCc2ccccc2)CCN1O (stereo not drawn) [1(vv), 1-Hydroxy-3-phenyl-4-(3-phenylpropyl)-piperidin-2-one]
900 | O=C1[C@@H](CCCc2ccccc2)[C@@H](c2ccccc2)CCN1O (relative stereo) [1(t), cis-1-hydroxy-4-phenyl-3-(3-phenylpropyl)-piperidin-2-one]
130 | CCCCCCCC[C@H]1C[C@H](c2cccc3ccccc23)CC(=O)N1O (relative stereo) [1(o), trans-1-hydroxy-4-(1-naphthyl)-6-octylpiperidin-2-one]
700 | CCCCCCCCCCCC[C@@H]1C(=O)N(O)CC[C@H]1c1ccccc1 (relative stereo) [1(s), trans-1-hydroxy-4-phenyl-3-dodecylpiperidin-2-one]
1000 | O=C1C(Cc2cccc3ccccc23)C(c2ccccc2)CCN1O (stereo not drawn) [1(ee), 1-Hydroxy-3-(1-naphthyl-methyl)-4-phenyl-piperidin-2-one]
700 | CCCCCCCCCCCCCC[C@H]1C[C@H](Cc2ccccc2)CC(=O)N1O (relative stereo) [1(oo), trans-4-Benzyl-1-hydroxy-6-tetradecyl-piperidin-2-one]
3000 | O=C1C[C@@H](CCCc2ccccc2)C[C@H](c2ccccc2)N1O (relative stereo) [1(eee), trans-1-Hydroxy-6-phenyl-4-(3-phenylpropyl)-piperidin-2-one]
420 | CCCCCCCC[C@@H]1C[C@H](c2ccccc2)CC(=O)N1O (relative stereo) [Compound 1, cis-1-hydroxy-6-octyl-4-phenylpiperidin-2-one]
800 | CCCCCCCCCCCC[C@@H]1[C@H](c2ccccc2)CCC(=O)N1O (relative stereo) [1(aa), cis-6-Dodecyl-1-hydroxy-5-phenyl-piperidin-2-one]
800 | CCCCCCCCCCCC[C@H]1C[C@H](Cc2ccccc2)CC(=O)N1O (relative stereo) [1(mm), trans-4-Benzyl-6-dodecyl-1-hydroxy-piperidin-2-one]
2000 | CCCCCCCCCCCCC1CCC(c2ccccc2)N(O)C1=O (single isomer, unassigned) [1(ii), 3-Dodecyl-1-hydroxy-6-phenyl-piperidin-2-one]
900 | O=C1CC[C@@H](c2ccccc2)[C@@H](CCCc2ccccc2)N1O (relative stereo) [1(ww), cis-1-Hydroxy-5-phenyl-6-(3-phenylpropyl)-piperidin-2-one]
700 | CCCCCCCC[C@@H]1C[C@H](c2cccc3ccccc23)CC(=O)N1O (relative stereo) [1(n), cis-1-hydroxy-4-(1-naphthyl)-6-octylpiperidin-2-one]
300 | CCCCCCCCCC[C@@H]1[C@@H](c2ccccc2)CCC(=O)N1O (relative stereo) [1(y), trans-6-Decyl-hydroxy-5-phenyl-piperidin-2-one]
250 | CCCCCCCCCC[C@@H]1C[C@H](Cc2ccccc2)CC(=O)N1O (relative stereo) [1(jj), cis-4-Benzyl-6-decyl-1-hydroxy-piperidin-2-one]
400 | CCCCCCCCCCCCCC[C@@H]1C[C@H](Cc2ccccc2)CC(=O)N1O (relative stereo) [1(nn), cis-4-Benzyl-1-hydroxy-6-tetradecyl-piperidin-2-one]

IC50 [nM] | SMILES
600 | CCCCCCCCC[C@@H]1CC(=O)N(O)C[C@H]1c1ccccc1 (relative stereo) [1(tt), trans-1-Hydroxy-4-nonyl-5-phenyl-piperidin-2-one]
300 | CCCCCCCCCCCC[C@@H]1C[C@H](c2ccccc2)CC(=O)N1O (relative stereo) [1(d), cis-1-hydroxy-6-dodecyl-4-phenyl-piperidine-2-one]
1000 | O=C1CC[C@@H](c2ccccc2)[C@H](CCCc2ccccc2)N1O (relative stereo) [1(xx), trans-1-Hydroxy-5-phenyl-6-(3-phenylpropyl)-piperidin-2-one]
800 | CCCCCCCCCCCC[C@@H]1C(=O)N(O)CC[C@@H]1c1ccccc1 (relative stereo) [1(r), cis-1-hydroxy-4-phenyl-3-dodecylpiperidin-2-one]
600 | CCCCCCCCCC[C@@H]1C[C@H](c2ccccc2)CC(=O)N1O (relative stereo) [1(b), cis-1-hydroxy-6-decyl-4-phenyl-piperidin-2-one]
1700 | O=C1CC(CCCc2ccccc2)C(c2ccccc2)CN1O (single isomer, unassigned) [1(uu), 1-Hydroxy-5-phenyl-4-(3-phenylpropyl)-piperidin-2-one]
400 | CCCCCCCCCC[C@H]1C[C@H](Cc2ccccc2)CC(=O)N1O (relative stereo) [1(kk), trans-4-Benzyl-6-decyl-1-hydroxy-piperidin-2-one]
250 | O=C1CCC(CCCc2ccccc2)C(CCCc2ccccc2)N1O (stereo not drawn) [1(fff), 1-Hydroxy-5,6-bis(3-phenyl-propyl)-piperidin-2-one]
280 | O=C1C[C@@H](c2ccccc2)C[C@@H](CCCc2ccccc2)N1O (relative stereo) [1(j), cis-1-hydroxy-4-phenyl-6-(3-phenylpropyl)-piperidin-2-one]
> 10000 | CCCCCCCCCCCCCCCCCC[C@@H]1C[C@H](c2ccccc2)CC(=O)N1O (relative stereo) [1(h), cis-1-hydroxy-6-octadecyl-4-phenylpiperidin-2-one]
1000 | CCCCCCCCCC[C@@H]1CC[C@H](c2ccccc2)C(=O)N1O (relative stereo) [1(v), cis-6-Decyl-1-hydroxy-3-phenyl-piperidin-2-one]
2000 | CCCCCCCCCCCCCC[C@H]1[C@H](c2ccccc2)CCC(=O)N1O (relative stereo) [1(bb), trans-1-Hydroxy-5-phenyl-6-tetradecyl-piperidin-2-one]
10000 | CCCCCCCCCCCCCCCCCC[C@H]1C[C@H](c2ccccc2)CC(=O)N1O (relative stereo) [1(i), trans-1-hydroxy-6-octadecyl-4-phenylpiperidin-2-one]
1500 | O=C1[C@@H](CCCc2ccccc2)[C@H](c2ccccc2)CCN1O (relative stereo) [1(u), trans-1-hydroxy-4-phenyl-3-(3-phenylpropyl)-piperidin-2-one]
1050 | O=C1C(CCCc2ccccc2)C(c2ccccc2)CCN1O (stereo not drawn) [1(hh), 1-Hydroxy-4-phenyl-3-(3-phenylpropyl)-piperidin-2-one]
1600 | O=C1CC(c2ccccc2)C(CCCc2ccccc2)CN1O (stereo not drawn) [1(zz), 1-Hydroxy-4-phenyl-5-(3-phenylpropyl)-piperidin-2-one]
700 | CCCCCCCCCC[C@H]1C[C@H](c2ccccc2)CC(=O)N1O (relative stereo) [1(c), trans-1-hydroxy-6-decyl-4-phenyl-piperidin-2-one]
150 | CCCCCCCC[C@H]1C[C@H](c2ccccc2)CC(=O)N1O (relative stereo) [1(a), trans-1-hydroxy-6-octyl-4-phenylpiperidin-2-one]
